One test relates to PDAC1 xenografts. Put plainly: PDX treatment in nude mice. Conditions: PDAC1 PDX; GEM 125 mg/kg i.p. biweekly, SIR 30 mg/kg oral gavage; 23 days. In kind it is in vivo, NU-Foxn1nu nude mice. As to the method:
(§1) Cells were analyzed with a 4-laser Attune NxT Acoustic Cytometer (ThermoFisher Scientific). Cells and digested tumors (as described in [41]) were resuspended in FLOW buffer (1X PBS; 3 mM EDTA (v/v); 3% FBS (v/v)), and the following fluorescently-tagged antibodies were used to label cells for 30 min at 4 °C: Mouse monoclonal anti-human CD133-PE (1:20, Cat no. 130-110-962, Miltenyi, Bergisch Gladbach, Germany), Mouse monoclonal anti-human CD133-APC (1:20, Cat no. 130-111-080, Miltenyi, Bergisch Gladbach, Germany), mouse monoclonal anti-human C-X-C chemokine receptor type 4- Phycoerythrin (CXCR4-PE) (1:20, Cat no. 130-117-354, Miltenyi, Bergisch Gladbach, Germany), or mouse monoclonal anti-human Epithelial cell adhesion molecule-fluorescein isothiocyanate (EpCAM-FITC) (1:20, Cat no. 130-111-115, Miltenyi, Bergisch Gladbach, Germany). Autofluorescent cells were excited with blue laser 488nm and selected as the intersection with the filters 530/40 and 580/30 as previously described. For lysosomes quantification, Acridine Orange (AO) (A1301, Thermo Fisher Scientific, Waltham, MA, USA) or Lysotracker Deep Red (DR) (L12492, Molecular probes, Life Technologies, Waltham, MA, USA) were used. AO fluorescence was assessed with two combinations of excitation and emission spectra: BL1 […] BL3 (Ex488/Em695/40, equal to the far-red channel (>670 nm)) Lysotracker DR fluorescence was assessed with RL1 (Ex638/Em670/14). Bafilomycin A1 (100 nM, Calbiochem, San Diego, CA, USA) was included as a positive control for lysosome disruption. For Annexin V staining, floating and attached cells were pooled and resuspended in 1× AnnexinV staining buffer containing AnnexinV-APC diluted 1:20 (Biotium, Freemont, CA, USA) and incubated for 20 min at room temperature prior to flow cytometric analysis. For all assays, DAPI was used to mark and exclude dead cells, and data were analyzed using the software FlowJo v9.3 (Tree Star Inc., Ashland, OR, USA).
(§2) Female 6- to 8-week-old NU-Foxn1nu nude mice (Envigo, Spain) were subcutaneously injected with control or pre-treated 1 × 10^4 PDAC cells in 50 µL of Matrigel^TM (Corning). Tumor growth was monitored bi-weekly for up to 10 weeks. For Siramesine experiments, mice were subcutaneously implanted with PDAC1 and PDAC3 PDXs. After 4 weeks of tumor growth, mice were randomized into treatment groups (5 mice per group). Mice were treated with Siramesine twice a week (30 mg/kg by oral gavage formulated in 0.5% methylcellulose 15 cP in 0.9% NaCl solution) for ~4 weeks. Gemcitabine (GEMZAR®, Eli Lilly, Indianapolis, IN, USA) was administered twice a week (125 mg/kg i.p.) for ~4 weeks. Tumor volumes (mm^3) were determined twice per week using a digital caliper. Mice were sacrificed at 24 days post treatment initiation and tumors were extracted and analyzed by flow cytometry as described above. For second generation tumor formation, 1000 and 100 cells of indicated treatment groups were resuspended in Matrigel ^TM and injected subcutaneously in recipient NU-Foxn1nu nude mice and tumor formation was monitored for 10 weeks. Mice were housed according to institutional guidelines and all experiments were performed in compliance with the institutional guidelines for the welfare of experimental animals approved by the Universidad Autónoma de Madrid Ethics Committee (CEI 60-1057-A068) or by the Instituto de Salud Carlos III Ethics Committee (CBA12_2014-v3) and La Comunidad de Madrid (PROEX 335/14 or PROEX 53/14) and in accordance with the guidelines for Ethical Conduct in the Care and Use of Animals as stated in The International Guiding Principles for Biomedical Research involving Animals, developed by the Council for International Organizations of Medical Sciences (CIOMS).

Another test concerns PDAC3 xenografts. Put plainly: PDX treatment in nude mice. It counts as in vivo, NU-Foxn1nu nude mice. The method, then:
as §1, §2

The target of a further test is T1, BLK (Homo sapiens, UniProt P51451).
T1 construct: purchased DiscoveRx KINOMEscan
T1 sequence (P51451 whole entry): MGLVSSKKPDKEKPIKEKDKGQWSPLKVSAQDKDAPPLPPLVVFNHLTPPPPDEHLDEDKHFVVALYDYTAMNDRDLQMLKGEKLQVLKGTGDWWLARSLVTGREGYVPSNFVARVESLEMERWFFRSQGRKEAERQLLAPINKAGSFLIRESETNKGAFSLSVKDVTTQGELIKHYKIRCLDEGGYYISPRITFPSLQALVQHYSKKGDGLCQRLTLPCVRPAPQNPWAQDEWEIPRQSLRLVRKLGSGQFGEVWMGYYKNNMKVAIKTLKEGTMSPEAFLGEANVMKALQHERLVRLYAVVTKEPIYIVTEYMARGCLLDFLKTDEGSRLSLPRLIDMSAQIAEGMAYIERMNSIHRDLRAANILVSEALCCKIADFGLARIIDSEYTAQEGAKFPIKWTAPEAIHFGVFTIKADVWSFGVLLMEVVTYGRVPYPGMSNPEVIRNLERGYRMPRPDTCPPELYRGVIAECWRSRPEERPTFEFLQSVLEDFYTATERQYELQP
Put plainly: KINOMEscan. It counts as binding. The conditions noted are these: read-out: % Ctrl.

The next test concerns the target T2, TTK (Homo sapiens, UniProt P33981).
T2 construct: purchased DiscoveRx KINOMEscan
In words: KINOMEscan. It counts as binding. Conditions: read-out: % Ctrl.

The target in another test is T3, TNK1 (Homo sapiens, UniProt Q13470).
T3 construct: purchased DiscoveRx KINOMEscan
T3 sequence (Q13470 whole entry): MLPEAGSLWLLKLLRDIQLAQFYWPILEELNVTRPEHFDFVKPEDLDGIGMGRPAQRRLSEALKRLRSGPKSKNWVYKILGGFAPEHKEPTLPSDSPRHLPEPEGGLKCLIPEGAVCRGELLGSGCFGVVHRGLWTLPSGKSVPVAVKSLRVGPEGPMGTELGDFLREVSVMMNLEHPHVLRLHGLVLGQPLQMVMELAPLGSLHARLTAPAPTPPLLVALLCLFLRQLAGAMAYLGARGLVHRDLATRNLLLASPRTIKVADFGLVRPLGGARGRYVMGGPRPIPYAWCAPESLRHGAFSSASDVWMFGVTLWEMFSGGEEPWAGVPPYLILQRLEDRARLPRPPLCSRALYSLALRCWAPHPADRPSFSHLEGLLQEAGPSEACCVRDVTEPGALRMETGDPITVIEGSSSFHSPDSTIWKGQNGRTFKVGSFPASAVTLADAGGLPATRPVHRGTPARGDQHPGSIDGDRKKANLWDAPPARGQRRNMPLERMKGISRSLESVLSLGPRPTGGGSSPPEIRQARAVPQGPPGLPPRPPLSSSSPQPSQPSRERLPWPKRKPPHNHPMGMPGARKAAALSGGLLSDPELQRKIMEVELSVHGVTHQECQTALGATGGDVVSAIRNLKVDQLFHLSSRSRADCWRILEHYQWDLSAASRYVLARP
In words: KINOMEscan. It counts as binding. Conditions: read-out: % Ctrl.

In the next test the target is T4, JNK2 (Homo sapiens, UniProt P45984).
T4 construct: purchased DiscoveRx KINOMEscan
In words: KINOMEscan. The conditions noted are these: read-out: % Ctrl. It counts as binding.

A further test addresses T5, TRPM6 (Homo sapiens, UniProt Q9BX84).
T5 construct: purchased DiscoveRx KINOMEscan
In words: KINOMEscan. It counts as binding. Conditions: read-out: % Ctrl.

The next test addresses T6, MLK2 (Homo sapiens, UniProt Q02779).
T6 construct: purchased DiscoveRx KINOMEscan
In words: KINOMEscan. It counts as binding. The conditions noted are these: read-out: % Ctrl.

The next test has as its target T7, CAMK2A (Homo sapiens, UniProt Q9UQM7).
T7 construct: purchased DiscoveRx KINOMEscan
Put plainly: KINOMEscan. It counts as binding. The conditions noted are these: read-out: % Ctrl.

A further test has as its target T8, GRK3 (Homo sapiens, UniProt P35626).
T8 construct: purchased DiscoveRx KINOMEscan
Put plainly: KINOMEscan. In kind it is binding. Conditions: read-out: % Ctrl.

Another test addresses T9, ABL1(Y253F)-P (Homo sapiens, UniProt P00519, Y253F).
T9 construct: purchased DiscoveRx KINOMEscan
Put plainly: KINOMEscan. It counts as binding. The conditions noted are these: read-out: % Ctrl.

For another test, the target named is T10, KIT(A829P) (Homo sapiens, UniProt P10721, A829P).
T10 construct: purchased DiscoveRx KINOMEscan
T10 sequence (P10721 26-976 A829P): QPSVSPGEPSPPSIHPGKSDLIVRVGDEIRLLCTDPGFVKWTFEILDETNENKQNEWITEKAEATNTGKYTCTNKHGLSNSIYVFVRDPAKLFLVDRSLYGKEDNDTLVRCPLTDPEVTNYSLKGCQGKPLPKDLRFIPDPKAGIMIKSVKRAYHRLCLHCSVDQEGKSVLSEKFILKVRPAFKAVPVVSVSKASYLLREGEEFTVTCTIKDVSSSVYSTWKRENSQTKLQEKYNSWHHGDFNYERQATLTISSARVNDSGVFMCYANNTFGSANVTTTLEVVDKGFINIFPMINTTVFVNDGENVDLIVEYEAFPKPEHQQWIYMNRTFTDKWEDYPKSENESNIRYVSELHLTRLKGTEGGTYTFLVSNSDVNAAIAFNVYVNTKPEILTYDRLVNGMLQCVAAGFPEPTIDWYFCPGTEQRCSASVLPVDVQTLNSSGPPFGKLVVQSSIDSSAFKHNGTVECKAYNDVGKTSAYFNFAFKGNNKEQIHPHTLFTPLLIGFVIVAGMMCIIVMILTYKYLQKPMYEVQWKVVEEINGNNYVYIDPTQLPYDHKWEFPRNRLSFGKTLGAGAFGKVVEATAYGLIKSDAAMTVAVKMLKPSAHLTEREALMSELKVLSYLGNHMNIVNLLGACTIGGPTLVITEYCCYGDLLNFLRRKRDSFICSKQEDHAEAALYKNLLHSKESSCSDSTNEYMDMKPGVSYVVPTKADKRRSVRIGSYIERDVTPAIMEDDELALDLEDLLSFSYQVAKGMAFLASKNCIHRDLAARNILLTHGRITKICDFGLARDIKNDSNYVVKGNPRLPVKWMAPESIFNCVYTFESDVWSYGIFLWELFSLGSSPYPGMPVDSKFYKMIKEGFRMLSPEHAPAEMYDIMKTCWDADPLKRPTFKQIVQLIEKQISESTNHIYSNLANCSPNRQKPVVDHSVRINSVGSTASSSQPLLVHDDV
In words: KINOMEscan. It counts as binding. The conditions noted are these: read-out: % Ctrl.

The target in a further test is T11, PCTK3 (Homo sapiens, UniProt Q07002).
T11 construct: purchased DiscoveRx KINOMEscan
T11 sequence (Q07002 whole entry): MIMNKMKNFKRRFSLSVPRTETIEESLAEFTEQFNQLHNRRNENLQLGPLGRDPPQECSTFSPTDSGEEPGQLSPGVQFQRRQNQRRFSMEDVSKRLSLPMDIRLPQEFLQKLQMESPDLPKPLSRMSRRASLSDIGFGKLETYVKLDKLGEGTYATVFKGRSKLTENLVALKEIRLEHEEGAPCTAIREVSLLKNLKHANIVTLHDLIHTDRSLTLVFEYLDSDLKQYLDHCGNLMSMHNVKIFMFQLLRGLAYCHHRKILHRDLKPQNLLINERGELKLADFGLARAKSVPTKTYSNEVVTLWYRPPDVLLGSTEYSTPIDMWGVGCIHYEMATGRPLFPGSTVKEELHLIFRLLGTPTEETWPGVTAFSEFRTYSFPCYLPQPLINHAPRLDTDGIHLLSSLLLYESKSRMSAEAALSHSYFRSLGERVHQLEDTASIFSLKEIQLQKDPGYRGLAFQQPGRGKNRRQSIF
Put plainly: KINOMEscan. The conditions noted are these: read-out: % Ctrl. It counts as binding.

In another test the target is T12, ABL1(F317I)-P (Homo sapiens, UniProt P00519, F317I).
T12 construct: purchased DiscoveRx KINOMEscan
In words: KINOMEscan. It counts as binding. The conditions noted are these: read-out: % Ctrl.

Another test addresses T13, FLT1 (Homo sapiens, UniProt P17948).
T13 construct: purchased DiscoveRx KINOMEscan
In words: KINOMEscan. It counts as binding. Conditions: read-out: % Ctrl.

A further test addresses T14, ARK5 (Homo sapiens, UniProt O60285).
T14 construct: purchased DiscoveRx KINOMEscan
Put plainly: KINOMEscan. Conditions: read-out: % Ctrl. It counts as binding.

The next test addresses T15, CDK3 (Homo sapiens, UniProt Q00526).
T15 construct: purchased DiscoveRx KINOMEscan
Put plainly: KINOMEscan. It counts as binding. The conditions noted are these: read-out: % Ctrl.

A further test deals with T16, PIK3CA(E545A) (Homo sapiens, UniProt P42336, E545A).
T16 construct: purchased DiscoveRx KINOMEscan
In words: KINOMEscan. In kind it is binding. Conditions: read-out: % Ctrl.

The next test deals with T17, MINK (Homo sapiens, UniProt Q8N4C8).
T17 construct: purchased DiscoveRx KINOMEscan
Put plainly: KINOMEscan. In kind it is binding. Conditions: read-out: % Ctrl.

From article PMC7407272, “Induction of Lysosome Membrane Permeabilization as a Therapeutic Strategy to Target Pancreatic Cancer Stem Cells” (Cancers, 2020) come the findings set out here.

T8 sequence (P35626 whole entry): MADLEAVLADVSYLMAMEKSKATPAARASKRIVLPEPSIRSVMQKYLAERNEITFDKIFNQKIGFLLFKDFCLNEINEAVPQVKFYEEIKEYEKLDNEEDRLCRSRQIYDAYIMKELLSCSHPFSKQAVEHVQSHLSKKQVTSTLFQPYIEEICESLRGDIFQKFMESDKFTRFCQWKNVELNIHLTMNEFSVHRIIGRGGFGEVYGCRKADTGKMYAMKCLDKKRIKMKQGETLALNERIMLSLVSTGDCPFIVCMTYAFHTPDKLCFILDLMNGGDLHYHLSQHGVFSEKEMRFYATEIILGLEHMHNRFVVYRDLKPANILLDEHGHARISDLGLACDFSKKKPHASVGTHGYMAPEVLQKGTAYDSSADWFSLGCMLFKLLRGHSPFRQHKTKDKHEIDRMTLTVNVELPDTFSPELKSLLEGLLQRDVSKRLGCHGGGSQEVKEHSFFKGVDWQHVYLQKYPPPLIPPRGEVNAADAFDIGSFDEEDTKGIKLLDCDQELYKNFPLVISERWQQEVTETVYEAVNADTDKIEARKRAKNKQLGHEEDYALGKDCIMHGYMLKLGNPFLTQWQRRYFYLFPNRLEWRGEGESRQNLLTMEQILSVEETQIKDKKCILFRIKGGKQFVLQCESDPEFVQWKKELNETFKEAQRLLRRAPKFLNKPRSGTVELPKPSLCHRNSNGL
T7 sequence (Q9UQM7 whole entry): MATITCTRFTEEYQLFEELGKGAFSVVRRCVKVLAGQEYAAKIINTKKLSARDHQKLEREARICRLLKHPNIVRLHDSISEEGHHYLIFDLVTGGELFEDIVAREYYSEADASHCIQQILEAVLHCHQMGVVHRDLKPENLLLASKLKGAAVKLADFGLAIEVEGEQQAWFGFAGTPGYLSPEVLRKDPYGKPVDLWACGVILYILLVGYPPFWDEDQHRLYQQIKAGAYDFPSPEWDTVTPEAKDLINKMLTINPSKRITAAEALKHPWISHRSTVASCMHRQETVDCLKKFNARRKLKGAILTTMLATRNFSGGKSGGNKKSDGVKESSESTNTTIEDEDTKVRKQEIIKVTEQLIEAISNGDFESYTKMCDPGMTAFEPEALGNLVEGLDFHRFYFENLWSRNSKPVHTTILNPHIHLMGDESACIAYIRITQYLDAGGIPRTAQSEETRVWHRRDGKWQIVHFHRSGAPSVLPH
T13 sequence (P17948 27-1338): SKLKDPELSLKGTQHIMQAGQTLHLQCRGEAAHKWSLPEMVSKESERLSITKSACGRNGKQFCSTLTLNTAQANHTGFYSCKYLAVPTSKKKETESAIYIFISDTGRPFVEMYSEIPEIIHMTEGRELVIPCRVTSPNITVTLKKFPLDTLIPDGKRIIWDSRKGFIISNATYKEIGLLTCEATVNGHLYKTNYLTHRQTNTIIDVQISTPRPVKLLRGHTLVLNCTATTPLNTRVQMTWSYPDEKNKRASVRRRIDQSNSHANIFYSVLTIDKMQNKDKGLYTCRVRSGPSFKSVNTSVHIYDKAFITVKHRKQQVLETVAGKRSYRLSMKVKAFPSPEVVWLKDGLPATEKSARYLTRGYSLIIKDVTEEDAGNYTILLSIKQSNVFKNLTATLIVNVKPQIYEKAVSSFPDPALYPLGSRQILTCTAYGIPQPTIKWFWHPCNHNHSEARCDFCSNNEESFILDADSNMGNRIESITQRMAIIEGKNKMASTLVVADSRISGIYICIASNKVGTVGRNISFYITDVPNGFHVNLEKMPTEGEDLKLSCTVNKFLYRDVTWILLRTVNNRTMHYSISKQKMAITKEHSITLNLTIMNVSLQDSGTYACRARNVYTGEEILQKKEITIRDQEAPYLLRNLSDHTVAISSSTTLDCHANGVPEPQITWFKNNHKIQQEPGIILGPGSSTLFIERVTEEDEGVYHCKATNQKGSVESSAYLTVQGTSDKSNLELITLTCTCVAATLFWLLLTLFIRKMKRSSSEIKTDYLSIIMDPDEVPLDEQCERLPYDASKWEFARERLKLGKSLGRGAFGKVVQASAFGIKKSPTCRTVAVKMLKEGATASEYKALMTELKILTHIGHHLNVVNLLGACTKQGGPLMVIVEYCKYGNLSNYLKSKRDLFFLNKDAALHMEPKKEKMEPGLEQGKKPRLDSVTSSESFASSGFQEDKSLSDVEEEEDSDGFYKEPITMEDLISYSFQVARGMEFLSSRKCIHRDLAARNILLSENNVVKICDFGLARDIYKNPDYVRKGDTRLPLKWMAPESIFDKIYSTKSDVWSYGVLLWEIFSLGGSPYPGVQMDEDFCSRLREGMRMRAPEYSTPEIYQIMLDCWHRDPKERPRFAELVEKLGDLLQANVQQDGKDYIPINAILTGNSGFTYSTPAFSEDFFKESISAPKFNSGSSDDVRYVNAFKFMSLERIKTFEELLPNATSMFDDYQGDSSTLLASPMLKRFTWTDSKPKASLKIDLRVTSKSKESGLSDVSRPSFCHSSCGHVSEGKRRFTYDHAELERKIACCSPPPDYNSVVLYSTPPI

Turning to `Fc1ccc(-n2cc(CCCCN3CCC4(CC3)OCc3ccccc34)c3ccccc32)cc1` [siramesine], the “tumor volume versus control” value in the test on PDAC1 xenografts is reported as “no significant differences”; in the test on PDAC3 xenografts (PDAC3 PDX, GEM 125 mg/kg i.p. biweekly, SIR 30 mg/kg oral gavage, 23 days), “no significant differences”. Further, the “percentage of CD133+ and CD133+/CXCR4+ in tumors” value in the test on PDAC3 xenografts (PDAC3 tumors, 30 mg/kg) is “reduce”.
`CN1CCC(CNc2ccc3ncc(C(=O)Nc4cccc(OC(F)(F)F)c4)n3n2)CC1` [Cpd 2]: the remaining binding at 1 µM on BLK was 100%; on TTK it was 63%; at TNK1, 56%; at JNK2, 99%; on TRPM6, 100%; at MLK2, 100%. Besides, the remaining binding at 1 µM at CAMK2A was determined as 82%; on GRK3, 76%; on ABL1(Y253F)-P, 100%; on KIT(A829P), 91%; on PCTK3, 100%; at ABL1(F317I)-P, 94%. The remaining binding at 1 µM on FLT1 was 100%; on ARK5, 88%; on CDK3 it was 85%; on PIK3CA(E545A), 100%; on MINK, 94%.
